Source: paper PMC6524645 (Cell, 2018)

B1: E. coli SelO (ydiU) C272A mutant (enzyme, UniProt P77649 1-478, looked up)
chain: MTLSFVTRWRDELPETYTALSPTPLNNARLIWHNTELANTLSIPSSLFKNGAGVWGGEALLPGMSPLAQVYSGHQFGVWAGQLGDGRGILLGEQLLADGTTMDWHLKGAGLTPYSRMGDGRAVLRSTIRESLASEAMHYLGIPTTRALSIVTSDSPVYRETAEPGAMLMRVAPSHLRFGHFEHFYYRRESEKVRQLADFAIRHYWSHLADDEDKYRLWFSDVVARTASLIAQWQTVGFAHGVMNTDNMSLLGLTLDYGPFGFLDDYEPGFIANHSDHQGRYSFDNQPAVALWNLQRLAQTLSPFVAVDALNEALDSYQQVLLTHYGERMRQKLGFMTEQKEDNALLNELFSLMARERSDYTRTFRMLSLTEQHSAASPLRDEFIDRAAFDDWFARYRGRLQQDEVSDSERQQLMQSVNPALVLRNWLAQRAIEAAEKGDMTELHRLHEALRNPFSDRDDDYVSRPPDWGKRLEVSCSS
modifications: intermolecular disulfide between the two copies (cysteine not named)

Tests used:
P. syringae SelO = P. syringae SelO (Pseudomonas syringae group genomosp. 3, UniProt Q87VB1); assay: X-ray crystal structure, […] Å; type: binding; details: active site, nucleotide flipped; Mg2+ and Ca2+ bound; pH 8; 20 °C
non-reducing SDS-PAGE = target: the molecule itself; assay: non-reducing SDS-PAGE

Sequence of P. syringae SelO (Q87VB1 whole entry): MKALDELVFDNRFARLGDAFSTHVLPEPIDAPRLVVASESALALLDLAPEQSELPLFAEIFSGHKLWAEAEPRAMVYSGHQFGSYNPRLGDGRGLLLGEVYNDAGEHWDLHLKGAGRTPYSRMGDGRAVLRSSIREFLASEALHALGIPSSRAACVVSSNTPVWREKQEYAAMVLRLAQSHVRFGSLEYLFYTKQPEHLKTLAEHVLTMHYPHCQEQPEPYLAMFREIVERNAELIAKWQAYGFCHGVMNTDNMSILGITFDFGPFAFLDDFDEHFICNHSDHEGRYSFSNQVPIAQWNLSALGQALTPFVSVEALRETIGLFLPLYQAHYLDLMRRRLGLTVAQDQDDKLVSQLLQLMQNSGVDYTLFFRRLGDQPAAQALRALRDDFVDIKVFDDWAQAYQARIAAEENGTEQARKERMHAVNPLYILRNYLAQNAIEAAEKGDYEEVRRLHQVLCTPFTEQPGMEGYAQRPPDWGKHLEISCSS

Molecule | X-ray crystal structure, 2.27 Å (P. syringae SelO) | stoichiometry N (non-reducing SDS-PAGE)
Nc1ncnc2c1ncn2[C@@H]1O[C@H](COP(=O)(O)OP(=O)(O)NP(=O)(O)O)[C@@H](O)[C@H]1O [AMP-PNP] | bound to an ATP derivative AMP-PNP | –
B1 | – | 2
